Assay results reported in patent US20250333424A1, “ANTIVIRAL COMPOUNDS” (Gilead Sciences, Inc., priority 2024, published 2025).
pEC50: −log10 of the molar value.

Tested on: monocytic THP1 cells infected with HIV VSV-G pseudotyped GFP-NEF reporter virus
Test: cells
Assay type: cell-based
Conditions: Human immunodeficiency virus 1, THP-1, 24 h

Structure (SMILES) | pEC50
CNC(=O)CCn1nc(C)c2c(Oc3c(C)cc(/C=C/C#N)cc3C)nc(NC34CC(C#N)(C3)C4)nc21 [Compound 101, (E)-3-(6-((3-cyanobicyclo[1.1.1]pentan-1-yl)amino)-4-(4-(2-cyanovinyl)-2,6-dimethylphenoxy)-3-methyl-1H-pyrazolo[3,4-d]pyrimidin-1-yl)-N-methylpropanamide] | 7.23
Cc1cc(/C=C/C#N)cc(C)c1Oc1nc(NC23CC(C#N)(C2)C3)nc2nn(CCC(F)F)c(C)c12 [Compound 102, (E)-3-((4-(4-(2-cyanovinyl)-2,6-dimethylphenoxy)-2-(3,3-difluoropropyl)-3-methyl-2H-pyrazolo[3,4-d]pyrimidin-6-yl)amino)bicyclo[1.1.1]pentane-1-carbonitrile] | 7.65
Cc1cc(/C=C/C#N)cc(C)c1Oc1nc(NC23CC(C#N)(C2)C3)nc2c1c(C)nn2CCC(F)F [Compound 103, (E)-3-((4-(4-(2-cyanovinyl)-2,6-dimethylphenoxy)-1-(3,3-difluoropropyl)-3-methyl-1H-pyrazolo[3,4-d]pyrimidin-6-yl)amino)bicyclo[1.1.1]pentane-1-carbonitrile] | 6.66
Cc1cc(/C=C/C#N)cc(C)c1Oc1nc(NC23CC(C#N)(C2)C3)nc2[nH]nc(C3CC3)c12 [Compound 104, (E)-3-((4-(4-(2-cyanovinyl)-2,6-dimethylphenoxy)-3-cyclopropyl-1H-pyrazolo[3,4-d]pyrimidin-6-yl)amino)bicyclo[1.1.1]pentane-1-carbonitrile] | 6.85
C=Cc1n[nH]c2nc(NC34CC(C#N)(C3)C4)nc(Oc3c(C)cc(/C=C/C#N)cc3C)c12 [Compound 105, (E)-3-((4-(4-(2-cyanovinyl)-2,6-dimethylphenoxy)-3-vinyl-1H-pyrazolo[3,4-d]pyrimidin-6-yl)amino)bicyclo[1.1.1]pentane-1-carbonitrile] | 6.74
Cc1cc(/C=C/C#N)cc(C)c1Oc1nc(NC23CC(C#N)(C2)C3)nc2[nH]nc(-c3ccn(C)n3)c12 [Compound 107, (E)-3-((4-(4-(2-cyanovinyl)-2,6-dimethylphenoxy)-3-(1-methyl-1H-pyrazol-3-yl)-1H-pyrazolo[3,4-d]pyrimidin-6-yl)amino)bicyclo[1.1.1]pentane-1-carbonitrile] | 6.35
Cc1cc(/C=C/C#N)cc(C)c1Oc1nc(NC23CC(C#N)(C2)C3)nc2cn(C(C)C)nc12 [Compound 108] | 6.21
COc1n[nH]c2nc(NC34CC(C#N)(C3)C4)nc(Oc3c(C)cc(/C=C/C#N)cc3C)c12 [Compound 109, (E)-3-((4-(4-(2-cyanovinyl)-2,6-dimethylphenoxy)-3-methoxy-1H-pyrazolo[3,4-d]pyrimidin-6-yl)amino)bicyclo[1.1.1]pentane-1-carbonitrile] | 6.70
Cc1cc(/C=C/C#N)cc(C)c1Oc1nc(NC23CC(C#N)(C2)C3)nc2[nH]nc(O)c12 [Compound 110, (E)-3-((4-(4-(2-cyanovinyl)-2,6-dimethylphenoxy)-3-hydroxy-1H-pyrazolo[3,4-d]pyrimidin-6-yl)amino)bicyclo[1.1.1]pentane-1-carbonitrile] | < 6.00
Cc1cc(/C=C/C#N)cc(C)c1Oc1nc(NC23CC(C#N)(C2)C3)nc2noc(C)c12 [Compound 111, (E)-3-((4-(4-(2-cyanovinyl)-2,6-dimethylphenoxy)-3-methylisoxazolo[3,4-d]pyrimidin-6-yl)amino)bicyclo[1.1.1]pentane-1-carbonitrile] | 7.51
Cc1cc(/C=C/C#N)cc(C)c1Oc1nc(NC23CC(C#N)(C2)C3)nc2c(C)nn(C)c12 [Compound 121] | 7.27
COCCn1cc2c(Oc3c(C)cc(/C=C/C#N)cc3C)nc(NC34CC(C#N)(C3)C4)nc2n1 [Compound 123, 3-[[4-[4-[(E)-2-cyanovinyl]-2,6-dimethyl-phenoxy]-2-(2-methoxyethyl)pyrazolo[3,4-d]pyrimidin-6-yl]amino]bicyclo[1.1.1]pentane-1-carbonitrile] | 7.22
Cc1cc(/C=C/C#N)cc(C)c1Oc1nc(NC23CC(C#N)(C2)C3)nc2c1c(N)nn2C [Compound 125, 3-[[3-amino-4-[4-[(E)-2-cyanovinyl]-2,6-dimethyl-phenoxy]-1-methyl-pyrazolo[3,4-d]pyrimidin-6-yl]amino]bicyclo[1.1.1]pentane-1-carbonitrile] | 6.96
Cc1cc(/C=C/C#N)cc(C)c1Oc1nc(NC23CC(C#N)(C2)C3)nc2[nH]nc(C(C)C)c12 [Compound 126, 3-[[4-[4-[(E)-2-cyanovinyl]-2,6-dimethyl-phenoxy]-3-isopropyl-1H-pyrazolo[3,4-d]pyrimidin-6-yl]amino]bicyclo[1.1.1]pentane-1-carbonitrile] | 6.93
Cc1cc(/C=C/C#N)cc(C)c1Oc1nc(NC23CC(C#N)(C2)C3)nc2nn(C3CCOCC3)cc12 [Compound 127, 3-[[4-[4-[(E)-2-cyanovinyl]-2,6-dimethyl-phenoxy]-2-tetrahydropyran-4-yl-pyrazolo[3,4-d]pyrimidin-6-yl]amino]bicyclo[11.1.1]pentane-1-carbonitrile] | 6.83
Cc1cc(/C=C/C#N)cc(C)c1Oc1nc(NC23CC(C#N)(C2)C3)nc2c1CNC2 [Compound 135, (E)-3-((4-(4-(2-cyanovinyl)-2,6-dimethylphenoxy)-6,7-dihydro-5H-pyrrolo[3,4-d]pyrimidin-2-yl)amino)bicyclo[1.1.1]pentane-1-carbonitrile] | 6.56
Cc1cc(/C=C/C#N)cc(C)c1Oc1nc(NC23CC(C#N)(C2)C3)nc2c1C(C)NC2=O (centres unmarked) [Compound 136, (E)-3-((4-(4-(2-cyanovinyl)-2,6-dimethylphenoxy)-5-methyl-7-oxo-6,7-dihydro-5H-pyrrolo[3,4-d]pyrimidin-2-yl)amino)bicyclo[1.1.1]pentane-1-carbonitrile] | 7.82
Cc1cc(/C=C/C#N)cc(C)c1Oc1nc(NC23CC(C#N)(C2)C3)nc2c1[C@@H](C)NC2=O [Compound 137, 3-[[(5R)-4-[4-[(E)-2-cyanovinyl]-2,6-dimethyl-phenoxy]-5-methyl-7-oxo-5,6-dihydropyrrolo[3,4-d]pyrimidin-2-yl]amino]bicyclo[1.1.1]pentane-1-carbonitrile] | 8.16
Cc1cc(/C=C/C#N)cc(C)c1Oc1nc(NC23CC(C#N)(C2)C3)nc2c1[C@H](C)NC2=O [Compound 138, 3-[[(5S)-4-[4-[(E)-2-cyanovinyl]-2,6-dimethyl-phenoxy]-5-methyl-7-oxo-5,6-dihydropyrrolo[3,4-d]pyrimidin-2-yl]amino]bicyclo[1.1.1]pentane-1-carbonitrile] | 7.74
C=C1NC(=O)c2nc(NC34CC(C#N)(C3)C4)nc(Oc3c(C)cc(/C=C/C#N)cc3C)c21 [Compound 139, (E)-3-((4-(4-(2-cyanovinyl)-2,6-dimethylphenoxy)-5-methylene-7-oxo-6,7-dihydro-5H-pyrrolo[3,4-d]pyrimidin-2-yl)amino)bicyclo[1.1.1]pentane-1-carbonitrile] | 8.08
Cc1cc(/C=C/C#N)cc(C)c1Oc1nc(NC23CC(C#N)(C2)C3)nc2c1C(C)N(C)C2=O (centres unmarked) [Compound 140, (E)-3-((4-(4-(2-cyanovinyl)-2,6-dimethylphenoxy)-5,6-dimethyl-7-oxo-6,7-dihydro-5H-pyrrolo[3,4-d]pyrimidin-2-yl)amino)bicyclo[1.1.1]pentane-1-carbonitrile] | 7.84
Cc1cc(/C=C/C#N)cc(C)c1Oc1nc(NC23CC(C#N)(C2)C3)nc2c1C(C)(O)N(C)C2=O (centres unmarked) [Compound 141, (E)-3-((4-(4-(2-cyanovinyl)-2,6-dimethylphenoxy)-5-hydroxy-5,6-dimethyl-7-oxo-6,7-dihydro-5H-pyrrolo[3,4-d]pyrimidin-2-yl)amino)bicyclo[1.1.1]pentane-1-carbonitrile] | 7.14
CCn1cc2c(Oc3c(C)cc(/C=C/C#N)cc3C)nc(NC34CC(C#N)(C3)C4)nc2n1 [Compound 143, 3-[[4-[4-[(E)-2-cyanovinyl]-2,6-dimethyl-phenoxy]-2-ethyl-pyrazolo[3,4-d]pyrimidin-6-yl]amino]bicyclo[1.1.1]pentane-1-carbonitrile] | 7.23
Cc1cc(/C=C/C#N)cc(C)c1Oc1nc(NC23CC(C#N)(C2)C3)nc2nn(C3CC3)cc12 [Compound 144, (E)-3-((4-(4-(2-cyanovinyl)-2,6-dimethylphenoxy)-2-cyclopropyl-2H-pyrazolo[3,4-d]pyrimidin-6-yl)amino)bicyclo[1.1.1]pentane-1-carbonitrile] | 7.09
Cc1cc(/C=C/C#N)cc(C)c1Oc1nc(NC23CC(C#N)(C2)C3)nc2nn(CC3CC3)cc12 [Compound 145, (E)-3-((4-(4-(2-cyanovinyl)-2,6-dimethylphenoxy)-2-(cyclopropylmethyl)-2H-pyrazolo[3,4-d]pyrimidin-6-yl)amino)bicyclo[1.1.1]pentane-1-carbonitrile] | 7.05
COc1ccc(CN2C(=O)C(C)(C)c3c(Oc4c(C)cc(/C=C/C#N)cc4C)nc(NC45CC(C#N)(C4)C5)nc32)cc1 [Compound 146, (E)-3-((4-(4-(2-cyanovinyl)-2,6-dimethylphenoxy)-7-(4-methoxybenzyl)-5,5-dimethyl-6-oxo-6,7-dihydro-5H-pyrrolo[2,3-d]pyrimidin-2-yl)amino)bicyclo[1.1.1]pentane-1-carbonitrile] | 7.45
Cc1cc(/C=C/C#N)cc(C)c1Oc1nc(NC23CC(C#N)(C2)C3)nc2c1CNC2=O [Compound 153, (E)-3-((4-(4-(2-cyanovinyl)-2,6-dimethylphenoxy)-7-oxo-6,7-dihydro-5H-pyrrolo[3,4-d]pyrimidin-2-yl)amino)bicyclo[1.1.1]pentane-1-carbonitrile] | 7.56
Cc1cc(/C=C/C#N)cc(C)c1Oc1nc(NC23CC(C#N)(C2)C3)nc2nc(C3CCOCC3)n(C(F)F)c12 [Compound 176, (E)-3-((6-(4-(2-cyanovinyl)-2,6-dimethylphenoxy)-7-(difluoromethyl)-8-(tetrahydro-2H-pyran-4-yl)-7H-purin-2-yl)amino)bicyclo[1.1.1]pentane-1-carbonitrile] | 7.35
Cc1cc(/C=C/C#N)cc(C)c1Oc1nc(NC23CC(C#N)(C2)C3)nc2nc(-c3ccn(C)n3)n(C(F)F)c12 [Compound 177, (E)-3-((6-(4-(2-cyanovinyl)-2,6-dimethylphenoxy)-7-(difluoromethyl)-8-(1-methyl-1H-pyrazol-3-yl)-7H-purin-2-yl)amino)bicyclo[1.1.1]pentane-1-carbonitrile] | 7.34
